By Ki is commonly meant a dissociation constant, usually derived from enzyme kinetics or from competition with a known ligand. The low end stands for tighter binding, the high end for weaker binding.

Data set [1] addresses chorionic peptidase-1 (C-ase-1). The data set can be described thus: C-ase-1 enzyme activity assay, competition for degradation of GnRH. Conditions: competition for degradation of mammalian GnRH, Example III.
Method: Using the incubation system developed for the C-ase-1 activity, the degradation of each analog was tested. […] These studies were done using the C-ase-1 enzyme activity assay as described previously. […] The product formed was calculated by subtraction, and its inverse plotted against the inverse of the original substrate concentrations to determine the nature of the competition. The Ki was to be determined by plotting the inverse of the product that formed verses the inhibitor used.
The concentration of the product of the degraded GnRH was quantified by subtracting the remaining mammalian GnRH from the starting concentrations of mammalian GnRH. […] The Ks for the degradation of mammalian GnRH was calculated from the x axis intercept using Lineweaver-Burke double reciprocal plot of the concentration of the product formed versus the concentration of the substrate used.
The reaction was stopped by heating at 85° C. for 10 minutes. The remaining GnRH was determined using a specific radioimmunoassay. The formation of product, i.e., the N-terminal nonapeptide of GnRH, was calculated by subtraction and its inverse was plotted versus the inverse of the initial substrate to determine the Ks of the reaction. […] The relative potency of each analog was compared.
Using the incubation system developed for the C-ase-1 activity, the degradation of each analog was studied. […] The inverse of the product was plotted against the inverse of the original substrate concentrations to determine Ks of the competition. The Ki was determined by plotting the inverse of the product formed verses the inhibitor used.
The subject of data set [2] is human placental GnRH receptor. The data set can be described thus: Placental GnRH receptor binding, radiolabeled D-Arg(6)-chicken II GnRH-aza-Gly(10)-amide label. Here is the method: The newly synthesized non-mammalian GnRH analogs and other commercially available mammalian GnRH analogs were used in placental receptors binding and enzyme stability study described here. On the basis of these studies, the most receptor potent and enzyme-stable analogs were chosen for further biopotency studies. GnRH receptors were purified from the membrane fractions from placentas. The purification procedure for the placental GnRH receptor was performed using a modification of the method described by Bramley et al., which reference is specifically incorporated herein by reference for the purpose. Addition of enzyme inhibitors for the endogenous C-ase-1 were used as well as agents for receptor stabilization. Initially, receptor-binding assays using ^125I-Buserelin as label were performed. The competitive binding of each of the analogs was studied over a dose range of 10^−11 to 10^−6 M. Incubation was at room temperature and receptor bound label was precipitated with polyethylene glycol. Specific and non-specific binding was determined. The data was subjected to Scatchard analysis. The non-mammalian GnRH analogs' ability to bind to the placental GnRH receptor was compared to that for synthetic mammalian GnRH (SEQ ID NO: 5), Buserelin (SEQ ID NO: 10) and other mammalian analogs. […] This way, the receptor affinity for that analog could be precisely determined. Receptors from three different term placentas were used to study each of these analogs. […] Bramley T A, McPhie C A, Menzies G S 1994 Human placental gonadotropin-releasing hormone (GnRH) binding sites: 111. Changes in GnRH binding levels with stage of gestation. Placenta 15:733-745.
In these and additional studies, placental GnRH receptors were purified from human term placentas after homogenization in 40 mM Tris (pH 7.4) and filtered through cheesecloth, followed by an initial centrifugation at 1,000×g for 10 minutes. The resulting supernatant was, again, centrifuged at 35,000×g for 30 minutes and the membrane pellet was collected and resuspended in Tris buffer with 0.3 M sucrose. The protein concentration was determined. Membranes were stored frozen at −20 C until use. Before use, placental membranes were diluted to 5,000 μg/mL with Tris buffer containing 0.5% BSA and 50 U/mL bacitracin. Placental membranes (100 μL) were used with varying concentrations of mammalian GnRH (SEQ ID NO: 5), Buserelin (SEQ ID NO: 10), chicken II GnRH (SEQ ID NO: 6), D-Arg (6)-chicken II GnRH-des-Gly (10)-ethylamide (SEQ ID NO: 2), or D-Arg (6)-chicken II GnRH-aza-Gly (10)-amide (SEQ ID NO: 2) (100 μL) and either radiolabeled Buserelin (SEQ ID NO: 10) or radiolabeled D-Arg (6)-chicken II GnRH-aza-Gly (10)-amide (SEQ ID NO: 2) (100 μL/tube and iodinated). Following incubation at room temperature for 4 hours, the bound and free hormones were separated using polyethylene glycol precipitation, followed by centrifugation. The binding affinity for each GnRH isoform or analog was calculated using the double reciprocal plot of bound versus free ligand. Each study was done using three different human term placental tissues.

For data set [3], the system named is baboon ovarian enzymatic activity.
Method: In these studies the enzyme was in the ovarian extract.
In this assay, following incubation of the enzyme and GnRH, with and without the chosen analog, the reaction was stopped by heating and the remaining GnRH substrate was quantified by radioimmunoassay. The product formed is calculated by subtraction, and its inverse plotted against the inverse of the original substrate concentrations to determine the nature of the competition. The Ki was determined by plotting the inverse of the product formed versus the inhibitor used.
In data set [4] the target is baboon ovary GnRH receptor. Briefly: Baboon ovary membrane GnRH receptor binding. Conditions: baboon ovary membranes; read-out: GnRH receptor affinity. On the procedure:
The receptor binding activity of newly synthesized non-mammalian GnRH analogs was studied in ovarian and uterine tissues. […] The ovaries of the three baboons were extracted and the cytosolic and membrane fractions were recovered for the tissues. The membrane fraction from one animal was titred for GnRH receptor binding activity using D-Arg(6)-chicken II GnRH-aza-Gly(10)-amide radiolabeled ligand. Receptors were clearly demonstrable even at 4 μg membrane protein/tube. […] The chicken II GnRH analog (SEQ ID NO: 2) had the highest affinity for any GnRH analog reported to date.

Data set [5] has as its system human sperm. The data set can be described thus: Human sperm motility in vitro. Format: cell-based. On the procedure:
Normal human sperm ([…]) were obtained with seminal plasma and the motility of the sperm was assessed microscopically. Both the fraction of motile sperm and the forward sperm motion were assessed. These parameters were measured just prior to a 1:5 dilution with phosphate buffered saline containing 0 to 200 nM chicken II GnRH analog (SEQ ID NO: 2). The motility and motion of the sperm were assessed at 2, 30, 60, 90, 120 and 180 minutes after incubation at 37 C. […] By 180 minutes the motility of the control had fallen to that of all the treated sperm.

Where two headings read alike, the source gives them in different places. Non-standard residues stand in square brackets, D forms with d. Residues, ends and D or L forms follow the SMILES beside them. pGlu = O=C1CC[C@@H](C(=O)O)N1; azaGly = NNC(=O)O

`N=C(N)NCCC[C@@H](NC(=O)[C@H](Cc1c[nH]cn1)NC(=O)[C@H](CO)NC(=O)[C@H](Cc1c[nH]c2ccccc12)NC(=O)[C@H](Cc1c[nH]cn1)NC(=O)[C@@H]1CCC(=O)N1)C(=O)N[C@@H](Cc1c[nH]c2ccccc12)C(=O)N[C@@H](Cc1ccc(O)cc1)C(=O)N1CCC[C@H]1C(=O)NNC(N)=O` [D-Arg(6)-chicken II GnRH-aza-Gly(10)-amide] ([pGlu]HWSH[dR]WYP[azaGly]-NH2): the inhibitory constant (Ki) in data set [1] was greater than 400 nM; in data set [3] (competition with degradation of mammalian GnRH), no less than 1500 nM. In addition, in data set [2] (analog label), the “binding affinity compared with mammalian GnRH” value came to 25 fold. Moreover, the Kd in data set [2] (placenta 2 membrane preparation, read-out: affinity constant (Ks)) was found to be 68 nM; in data set [2] (three placental membrane preparations, read-out: average binding affinity), 93 ± 23 nM; in data set [4], 10 nM. Further, in data set [2] (versus Buserelin label), the “enhancement of affinity when the analog is used as label” value was 2 fold. For the same compound, in data set [3], the “stability compared with mammalian GnRH” value is given as “more than 50 times”. The “forward motion of remaining motile sperm” value in data set [5] is given as “maintained a high grade”. Also, in data set [5] (2 nM), the “time until inhibition of motility” value worked out at 30 min. In addition, the sperm motility result in data set [5] (20 to 200 nM) is listed as “initially inhibited”.
